In the experiment the test system is H4 APP751 SWE clone 8.20 (H4-8Sw cells), Aβ42 formation. The experiment is described as follows: Inhibition of Aβ42 formation in cultured cells. Type of experiment: cell-based. The conditions noted are these: H4-8Sw cells (H4 neuroglioma stably expressing Swedish mutant APP751), 19 hours incubation, mean±SD, n=2. As for the experimental part: Compounds were assayed for Aβ42 inhibition in cells using H4 APP751 SWE clone 8.20, developed at Bristol-Myers Squibb, an H4 neuroglioma cell line stably expressing the Swedish mutant of APP751. Cells were maintained in log phase through twice weekly passage at a 1:20 dilution. For IC50 determinations, 30 μL cells (1.5×10^4 cells/well) in DMEM media containing 0.0125% BSA (Sigma A8412) were plated directly into 384-well compound plates (Costar 3709) containing 0.1 μL serially diluted compound in DMSO. Following incubation for 19 hours in 5% CO2 at 37° C., plates were briefly centrifuged (1000 rpm, 5 min). Antibody cocktails were freshly prepared by dilution into 40 mM Tris-HCl (pH 7.4) with 0.2% BSA and added to assay plates. For Aβ42 measurements, antibodies specific for the Aβ42 neoepitope (565, developed at Bristol-Myers Squibb; conjugated to the Wallac reagent (Perkin Elmer)) and the N-terminal sequence of Aβ peptide (26D6, developed at SIBIA/Bristol-Myers Squibb; conjugated to APC (Perkin Elmer)) were mixed and 20 μL of the mixture was added to each well of the incubated cell plate yielding a final concentration of 0.8 ng/well 565 and 75 ng/well 26D6. […] Signal was determined using a Viewlux counter (Perkin Elmer) and IC50 values determined using curve fitting in CurveMaster (Excel Fit based).

By IC50 is commonly meant the concentration needed to halve the response being measured. Read a high IC50 as weaker potency in that assay. As for `[2H]c1nc(-c2ccc(CN([C@H](CCC(F)(F)F)C(N)=O)S(=O)(=O)c3ccc(Cl)cc3)c(F)c2)no1` [Example 1, (2R)-2-[[(4-Chlorophenyl)sulfonyl][[2-fluoro-4-(1,2,4-oxadiazol-5-deutero-3-yl)phenyl]methyl]amino]-5,5,5-trifluoropentanamide], half-maximal inhibition (IC50) was put at 0.12 ± 0.01 nM.

For the origin of these results see patent US8044077B2, “Alpha-(N-sulfonamido)acetamide compounds incorporating deuterium as inhibitors of beta amyloid peptide production” (Bristol-Myers Squibb Company, priority 2009, dated 2011).
